Test [1] concerns the target T1, rat CYP17 (Rattus norvegicus, UniProt P11715).
T1 construct: Rat testis tissue was collected and disrupted with 30 strokes of a glass homogenizer; from tissue; host or cells: rat testis (microsomal fraction)
T1 sequence (P11715 1-507): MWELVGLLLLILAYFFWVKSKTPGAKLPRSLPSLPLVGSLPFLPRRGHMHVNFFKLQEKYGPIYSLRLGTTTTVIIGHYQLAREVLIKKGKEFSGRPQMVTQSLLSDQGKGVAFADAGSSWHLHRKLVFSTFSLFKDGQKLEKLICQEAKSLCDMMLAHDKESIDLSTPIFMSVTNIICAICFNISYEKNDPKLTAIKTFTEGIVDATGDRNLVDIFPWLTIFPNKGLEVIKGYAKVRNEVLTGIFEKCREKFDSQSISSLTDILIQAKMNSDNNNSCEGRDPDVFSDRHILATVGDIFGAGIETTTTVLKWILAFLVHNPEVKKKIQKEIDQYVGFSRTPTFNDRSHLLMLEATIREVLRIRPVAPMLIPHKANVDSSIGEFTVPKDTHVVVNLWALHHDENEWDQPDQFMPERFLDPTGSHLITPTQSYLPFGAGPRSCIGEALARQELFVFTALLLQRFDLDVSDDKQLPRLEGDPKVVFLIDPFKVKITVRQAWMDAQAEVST
Put plainly: CYP17 inhibition assay in rat testicular microsomes. The test is classed as biochemical. The conditions noted are these: 3H3-17α-hydroxypregnenolone substrate, 60 minutes at 37° C. The method, then: (§1) CYP17 Inhibition Assay in Rat Testicular Microsomes (Rat CYP17) or Yeast Microsome Overexpressing Human CYP17
(§2) A. Materials • 1. NADPH (Sigma): A working stock was prepared by adding 25 μL of 6.5 mM NADPH in each tube. The final concentration of NADPH used in the assay was 325 μM. • 2. Potassium Phosphate Buffer: One molar (1M) solutions of K2HPO4 and KH2PO4 were prepared. Eight mL of the 1 M KH2PO4 and 1.98 mL of the 1 M K2HPO4 were combined and the pH was adjusted to 7.4. • 3. ^3H3-17α-hydroxypregnenolone (American Radiolabeled Chemicals, Inc., stock 1 μCi/μL): A 1:1 dilution of ^3H3-17α-hydroxypregnenolone in ethanol was prepared by combining 100 μL ^3H3-17α-hydroxypregnenolone+100 μL ethanol for one complete 96 well plate. For the reaction, 2 μL of the diluted ^3H3-17α-hydroxypregnenolone was added in each tube, i.e., 1 μCi/reaction. • 4. Microsome Isolation Buffer: The microsome isolation buffer was prepared by combining 250 mM Sucrose, 5 mM EDTA, 10 mM Tris HCl, 4 mM DTT, and adjusting to pH 7.4. • 5. TEG Buffer: The TEG buffer was prepared by combining 50 mM Tris HCl, 1 mM EDTA, and 20% Glycerol. • 6. Rat Testicular Microsomes: Rat testis tissue was collected and disrupted with 30 strokes of a glass homogenizer on ice with 250 μL of microsome isolation buffer, followed by centrifugation at 10,000 g for 10 minutes at 4° C. The supernatant was collected and centrifuged at 100,000 g for 45 minutes at 4° C. The pellet was dissolved in TEG Buffer and the protein was quantified. The homogenized microsome samples were then frozen at −80° C. • 7. Yeast Microsomes which overexpress the human CYP17 enzyme were obtained from Premas Biotech, India.
(§3) Potassium phosphate buffer (470 μL) was prepared as described above and was added to each well of a deep well plate. The test compound was diluted using a TECAN liquid handler and 5 μL of diluted compound was transferred to each well (96 deep well/1 mL). A solution (25 μL) of 6.5 mM NADPH was added (final concentration of 325 µM in the assay). ^3H3-17α-hydroxypregnenolone (2 μL of the working stock) was added to each tube. The plates were then pre-incubated for 15 minutes at 37° C. Following the pre-incubation, either 5 μL rat testicular microsomes (150-160 μg) or 5 μL of yeast microsomes expressing human CYP17 (1.7 pmol), was added. Incubation was at 37° C. for 60 minutes in the presence of oxygen. The plates were then placed in ice and chloroform (500 μL) was added, mixed well and incubated at 4° C. for 20 minutes. The plates were then centrifuged at 1000 rpm for 15 minutes at 4° C.
(§4) A portion (300 μL) of the aqueous solution was collected and mixed with a 5% aqueous suspension of activated charcoal (300 μL). The plates were then incubated at 4° C. for 30 minutes, after which the plates were centrifuged at 1000 rpm for 15 minutes at 4° C. From this, 125 μL of the aqueous solution was collected and plated into a 96 well plate. Microscint™ 40 [125 μL, Perkin-Elmer; containing a mixture of a polymer based on alkylphenolethoxylate (20-40%), diethanolamine-phosphoric acid ester ammonium salt (10-20%), sodium dioctyl sulphosuccinate (2.5-10%), triethyl phosphate (2.5-10%), 3,6-dimethyl-4-octyne-3,6-diol (≦2.5%), a polymer based on nonylphenolethoxylate (≦2.5%), diisopropyl naphthalene isomers (40-60%), 2,5-diphenyloxazole (≦2.5%), and 9,10-dimethylanthracene] was added and mixed well. After 30 minutes of incubation, the samples were analyzed with a MicroBeta® Trilux microplate liquid scintillation counter and luminometer (Perkin-Elmer).

The target in test [2] is T2, human CYP17 (Homo sapiens, UniProt P05093).
T2 sequence (P05093 1-508): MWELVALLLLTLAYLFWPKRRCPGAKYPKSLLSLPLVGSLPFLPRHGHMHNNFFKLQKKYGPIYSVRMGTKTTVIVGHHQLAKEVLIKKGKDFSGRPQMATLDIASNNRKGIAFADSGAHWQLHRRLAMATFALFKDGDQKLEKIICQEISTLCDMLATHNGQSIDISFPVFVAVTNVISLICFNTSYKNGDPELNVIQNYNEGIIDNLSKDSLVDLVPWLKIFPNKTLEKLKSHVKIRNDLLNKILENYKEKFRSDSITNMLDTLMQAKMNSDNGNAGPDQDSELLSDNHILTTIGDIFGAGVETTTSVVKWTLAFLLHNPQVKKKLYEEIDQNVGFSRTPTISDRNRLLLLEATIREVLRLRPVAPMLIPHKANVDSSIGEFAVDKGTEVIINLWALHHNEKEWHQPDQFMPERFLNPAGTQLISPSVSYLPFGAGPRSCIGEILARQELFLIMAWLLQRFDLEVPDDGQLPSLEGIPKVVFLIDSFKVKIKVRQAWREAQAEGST
In words: CYP17 inhibition assay in yeast microsomes overexpressing human CYP17. The test is classed as biochemical. The conditions noted are these: yeast microsomes expressing human CYP17, 3H3-17α-hydroxypregnenolone substrate, 60 minutes at 37° C. The method, then: as §1, §2, §3, §4

Usually IC50 stands for the midpoint of a concentration-inhibition curve. Higher therefore signals weaker potency in that assay. Take `CCC(c1cnc(-c2ccc(OC)cc2)s1)n1ccnc1` (stereo not shown) [Example 35, 5-(1-Imidazol-1-yl-propyl)-2-(4-methoxy-phenyl)-thiazole]: the IC50 in test [1] was less than 50 nM; in test [2] it was 201 to 10000 nM.
For `CCC(c1cnc(-c2ccc(O)cc2)s1)n1ccnc1` (stereo not shown) [Example 60, 4-[5-(1-Imidazol-1-yl-propyl)-thiazol-2-yl]-phenol] the same measures were 50 to 200 nM and 201 to 10000 nM.
For `CCC(c1ccc(-c2ccc(O)cc2)o1)n1ccnc1` (stereo not shown) [Example 30, 4-[5-(1-Imidazol-1-yl-propyl)-furan-2-yl]-phenol] the same measures were less than 50 nM and less than 50 nM.
`CCC(c1ccc(-c2ccc(COCOC)cc2)cn1)n1ccnc1` (stereo not shown) [Example 11, 2-(1-(1H-imidazol-1-yl)propyl)-5-(4-((methoxymethoxy)methyl)-phenyl)pyridine] yielded an IC50 in test [1] of 50 to 200 nM.
The same measure, in the same setting: the figure for `CCC(c1ccc(-c2ccccc2C#N)cn1)n1ccnc1` (stereo not shown) [Example 18, 2-(6-(1-(1H-imidazol-1-yl)propyl)pyridin-3-yl)benzonitrile] is less than 50 nM.
As to `CCC(c1ccc(-c2ccc(OC)cc2)cn1)n1ccnc1` (stereo not shown) [Example 47, 2-(1-Imidazol-1-yl-propyl)-5-(4-methoxy-phenyl)-pyridine], the IC50 was less than 50 nM in test [1] and 201 to 10000 nM in test [2].
Turning to `CCC(c1ccc(-c2ccc(O)cc2)cn1)n1ccnc1` (stereo not shown) [Example 50, 4-[6-(1-Imidazol-1-yl-propyl)-pyridin-3-yl]-phenol], the IC50 in test [1] and in test [2] was less than 50 nM in each case.
`CCC(c1cnc(-c2cn[nH]c2)s1)n1ccnc1` (stereo not shown) [Example 44, 5-(1-Imidazol-1-yl-propyl)-2-(1H-pyrazol-4-yl)-thiazole] registered an IC50 in test [1] of less than 50 nM.
Take `CC(c1ccc(-c2ccc(=O)n(C)c2)s1)n1ccnc1` (stereo not shown) [Example 20, 5-(5-(1-(1H-imidazol-1-yl)ethyl)thiophen-2-yl)-1-methylpyridin-2(1H)-one]: the half-maximal inhibitory concentration (IC50) in test [1] was less than 50 nM; in test [2] it was 201 to 10000 nM.
As to `COc1ccc(-c2ncc(C(C)n3ccnc3)s2)cn1` (stereo not shown) [Example 58, 5-[5-(1-Imidazol-1-yl-ethyl)-thiazol-2-yl]-2-methoxy-pyridine], in test [1], the IC50 was 50 to 200 nM.
Regarding `CCC(c1ccc(-c2ccc(OC)cc2)o1)n1ccnc1` (stereo not shown) [Example 27, 1-{1-[5-(4-Methoxy-phenyl)-furan-2-y]-propyl}-1H-imidazole], the half-inhibitory concentration (IC50) in test [1] and in test [2] was less than 50 nM each time.
Regarding `CCC(c1ccc(-c2cccc(OC)c2)cn1)n1ccnc1` (stereo not shown) [Example 7, 2-(1-(1H-imidazol-1-yl)propyl)-5-(3-methoxyphenyl)pyridine], the IC50 in test [1] and in test [2] was less than 50 nM throughout.
For the compound `COc1ccc(-c2ccc(C(C)(C)n3ccnc3)s2)cc1` [Example 24, 1-(2-(5-(4-methoxyphenyl)-thiophen-2-yl)-propan-2-yl)-1H-imidazole], the IC50 in test [1] was less than 50 nM; in test [2], 50 to 200 nM.
As to `CCc1cc(F)ccc1-c1ncc(C(CC)n2ccnc2)s1` (stereo not shown) [Example 46, 2-(2-Ethyl-4-fluoro-phenyl)-5-(1-imidazol-1-yl-propyl)-thiazole], the half-maximal inhibitory concentration (IC50) in test [1] was less than 50 nM.
As for `CCC(c1ccc(-c2cccc(O)c2)cn1)n1ccnc1` (stereo not shown) [Example 8, 3-(6-(1-(1H-imidazol-1-yl)propyl)pyridin-3-yl)phenol], the IC50 in test [1] and in test [2] was less than 50 nM throughout.
Regarding `CCC(c1ccc(-c2ccc(F)cc2)cn1)n1ccnc1` (stereo not shown) [Example 29, 5-(4-Fluoro-phenyl)-2-(1-imidazol-1-yl-propyl)-pyridine], in test [1], the IC50 was less than 50 nM.
Still for that read-out and setting: in the case of `CCC(c1ccc(-c2ccc(C(=O)O)cc2)cn1)n1ccnc1` (stereo not shown) [Example 6, 4-(6-(1-(1H-imidazol-1-yl)propyl)pyridin-3-yl)benzoic acid] it was 201 to 10000 nM; in that of `CC(c1ccc(-c2ccc(F)cc2)cn1)n1ccnc1` (stereo not shown) [Example 12, 2-(1-(1H-imidazol-1-yl)ethyl)-5-(4-fluorophenyl)pyridine], less than 50 nM.
On the same count and under the same terms, the figure for `CCC(c1ccc(-c2cccc(C#N)c2)cn1)n1ccnc1` (stereo not shown) [Example 53, 3-[6-(1-Imidazol-1-yl-propyl)-pyridin-3-yl]-benzonitrile] is less than 50 nM.
Still for that read-out and setting: in the case of `CCC(c1cnc(-c2ccc(NC(=O)OC(C)(C)C)cc2)s1)n1ccnc1` (stereo not shown) [Example 31, {4-[5-(1-Imidazol-1-yl-propyl)-thiazol-2-yl]-phenyl}-carbamic acid tert-butyl ester] it was less than 50 nM; in that of `COc1ccc(-c2ccc(C(CC(C)C)n3ccnc3)s2)cc1` (stereo not shown) [Example 39, 1-{1-[5-(4-Methoxy-phenyl)-thiophen-2-yl]-3-methyl-butyl}-1H-imidazole], less than 50 nM; in that of `CC(c1ccc(-c2ccc(N)cc2)cn1)n1ccnc1` (stereo not shown) [Example 14, 4-(6-(1-(1H-imidazol-1-yl)ethyl)pyridin-3-yl)aniline], 50 to 200 nM.
In the case of `COc1ccc(-c2cccnc2C(C)n2ccnc2)cc1` (stereo not shown) [Example 66, 2-(1-(1H-imidazol-1-yl)ethyl)-3-(4-methoxyphenyl)-pyridine], the IC50 in test [1] fell in the range of 50 to 200 nM.
With `CC(c1ccc(-c2ccc(O)cc2)cn1)n1ccnc1` (stereo not shown) [Example 16, 4-(6-(1-(1H-imidazol-1-yl)ethyl)pyridin-3-yl)phenol], the 50% inhibitory concentration (IC50) in test [1] is less than 50 nM.
The same measure, in the same setting: the figure for `CCC(c1ccc(-c2ccc(NC(C)=O)cc2)cn1)n1ccnc1` (stereo not shown) [Example 43, N-{4-[6-(1-Imidazol-1-yl-propyl)-pyridin-3-yl]-phenyl}-acetamide] is less than 50 nM; for `CC(c1ccc(-c2ccccc2F)cn1)n1ccnc1` (stereo not shown) [Example 40, 5-(2-Fluoro-phenyl)-2-(1-imidazol-1-yl-ethyl)-pyridine] it is less than 50 nM; for `CC(C)(c1ccc(-c2ccc(O)cc2)cn1)n1ccnc1` [Example 52, 4-[6-(1-Imidazol-1-yl-1-methyl-ethyl)-pyridin-3-yl]-phenol] it is less than 50 nM.

Values taken from patent US9199975B2, “Biaryl imidazole derivatives for regulating CYP17” (Asana Biosciences, LLC, priority 2011, dated 2015).
